Paper PMC8043142 (Journal of medicinal chemistry, 2021)

Columns and labels:
[1] = target: disulfide stabilized HIV-1NL4-3 CA hexamer (Human immunodeficiency virus type 1 group M subtype B, UniProt P12493, A146C/E177C/M317A/W316A); assay: SPR direct interaction analysis with immobilized CA hexamer; assay type: binding; settings: for kd: SPR, 25 °C, 1:1 binding model
[2] = Metabolic stability in human liver microsomes; settings: half-life relative to S-PF-74
[3] = enantiomerically pure compounds

SMILES | binding to CA hexamer via SPR (in words) [1, 3] | kd [1, 3] | other results
Cc1[nH]c2ccccc2c1CC(=O)NC(Cc1ccccc1)C(=O)N(C)c1ccc2[nH]ncc2c1 (centres unmarked) [CX16, N-(1H-indazol-5-yl)-N-methyl-2-(2-(2-methyl-1H-indol-3-yl)acetamido)-3-phenylpropanamide] | – | – | kd ([1]; racemic compounds): 1.21 ± 0.037 × 10^−2 s^−1
CN(C(=O)C(Cc1ccccc1)NC(=O)Cc1n[nH]c2c(N)cccc12)c1ccc2[nH]ncc2c1 (centres unmarked) [CX17, 2-(2-(7-amino-1H-indazol-3-yl)acetamido)-N-(1H-indazol-5-yl)-N-methyl-3-phenylpropanamide] | – | – | IC50 relative to predicted and experimentally determined affinity (HIV-1 pseudoviruses; racemic compound, IC50 higher than affinity): approximately 5 fold
Cc1[nH]c2ccccc2c1CC(=O)NC(Cc1ccccc1)C(=O)N(C)c1ccccc1 (centres unmarked) [PF-74, reference compound] | – | – | kd ([1]; racemic compounds): 2.93 ± 0.182 × 10^−2 s^−1
CN(C(=O)[C@@H](Cc1ccccc1)NC(=O)Cc1c[nH]c2c(N)cccc12)c1ccccc1 [R-CX15, (R)-2-(2-(7-Amino-1H-indol-3-yl)acetamido)-N-methyl-N,3-diphenylpropanamide] | little to no binding interactions | – | –
Cc1[nH]c2ccccc2c1CC(=O)N[C@H](Cc1ccccc1)C(=O)N(C)c1ccc2[nH]ncc2c1 [R-CX16, (R)-N-(1H-Indazol-5-yl)-N-methyl-2-(2-(2-methyl-1H-indol-3-yl)acetamido)-3-phenylpropanamide] | little to no binding interactions | – | –
CN(C(=O)[C@@H](Cc1ccccc1)NC(=O)Cc1n[nH]c2c(N)cccc12)c1ccc2[nH]ncc2c1 [R-CX17, (R)-2-(2-(7-amino-1H-indazol-3-yl)acetamido)-N-(1H-indazol-5-yl)-N-methyl-3-phenylpropanamide] | little to no binding interactions | – | –
Cc1[nH]c2ccccc2c1CC(=O)N[C@H](Cc1ccccc1)C(=O)N(C)c1ccccc1 [R-PF-74, (R)-N-methyl-2-(2-(2-methyl-1H-indol-3-yl)acetamido)-N,3-diphenylpropanamide, reference compound] | little to no binding interactions | – | –
CN(C(=O)[C@H](Cc1ccccc1)NC(=O)Cc1c[nH]c2c(N)cccc12)c1ccccc1 [S-CX15, (S)-2-(2-(7-Amino-1H-indol-3-yl)acetamido)-N-methyl-N,3-diphenylpropanamide] | robust binding | 6.60 ± 0.328 × 10^−2 s^−1 | Fold Increase (over S-PF-74) [2]: 30.8 fold
Cc1[nH]c2ccccc2c1CC(=O)N[C@@H](Cc1ccccc1)C(=O)N(C)c1ccc2[nH]ncc2c1 [S-CX16, (S)-N-(1H-Indazol-5-yl)-N-methyl-2-(2-(2-methyl-1H-indol-3-yl)acetamido)-3-phenylpropanamide] | robust binding | 1.09 ± 0.043 × 10^−2 s^−1 | improvement in affinity over S-PF-74 [1, 3]: > 2 fold; Fold Increase (over S-PF-74) [2]: 2.0 fold
CN(C(=O)[C@H](Cc1ccccc1)NC(=O)Cc1n[nH]c2c(N)cccc12)c1ccc2[nH]ncc2c1 [S-CX17, (S)-2-(2-(7-amino-1H-indazol-3-yl)acetamido)-N-(1H-indazol-5-yl)-N-methyl-3-phenylpropanamide] | robust binding | 9.66 ± 0.145 × 10^−2 s^−1 | change of antiviral potency relative to parental compound (HIV-1 pseudoviruses; slightly diminished potency): ~3.5 fold; Fold Increase (over S-PF-74) [2]: 204 fold
Cc1[nH]c2ccccc2c1CC(=O)N[C@@H](Cc1ccccc1)C(=O)N(C)c1ccccc1 [S-PF-74, (S)-N-methyl-2-(2-(2-methyl-1H-indol-3-yl)acetamido)-N,3-diphenylpropanamide, reference compound] | robust binding | 2.92 ± 0.111 × 10^−2 s^−1 | –
